One assay addresses T1, PPARγ (Homo sapiens, UniProt P37231).
T1 construct: 293T cells that were transfected with a plasmid (1 μg) expressing a PPARγ reporter gene; endogenous in cells; host or cells: 293T
T1 sequence (P37231 1-505): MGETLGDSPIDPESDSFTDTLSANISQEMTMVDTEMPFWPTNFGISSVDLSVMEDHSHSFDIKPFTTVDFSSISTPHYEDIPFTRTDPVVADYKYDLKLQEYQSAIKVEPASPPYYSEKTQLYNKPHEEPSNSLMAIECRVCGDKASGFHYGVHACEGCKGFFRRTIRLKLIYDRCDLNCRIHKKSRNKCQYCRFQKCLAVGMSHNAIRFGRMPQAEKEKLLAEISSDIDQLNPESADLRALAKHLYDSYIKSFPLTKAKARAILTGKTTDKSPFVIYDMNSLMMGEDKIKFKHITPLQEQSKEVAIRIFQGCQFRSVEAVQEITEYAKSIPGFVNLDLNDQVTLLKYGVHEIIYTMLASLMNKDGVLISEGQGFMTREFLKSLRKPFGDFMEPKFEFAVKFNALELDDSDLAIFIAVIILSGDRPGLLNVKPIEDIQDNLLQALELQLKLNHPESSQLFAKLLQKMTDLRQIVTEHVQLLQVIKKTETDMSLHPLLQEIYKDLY
Description: PPARγ reporter (PPRE) luciferase assay in 293T cells. In kind it is cell-based. Conditions: 1 μM 24 hours before 10 μM rosiglitazone or troglitazone 12 hours, FIG. 3D. The protocol:
Luciferase assays were performed as described elsewhere (Kim et al., 2005, which is hereby incorporated by reference for all purposes as if fully set forth herein).
293T cells that were transfected with a plasmid (1 μg) expressing a PPARγ reporter gene. After transfection, cells were pretreated or not pretreated with 1 μM of GW9662 for 24 hours, before being treated with 10 μM of rosiglitazone (Rosi) or troglitazone (Tro) for 12 hours. The obtained relative luciferase activities in the cell extracts normalized to a mock-treated control extract are shown in FIG. 3D.

A further assay has as its system HeLa cells. Description: Stress granule (SG) formation in HeLa cells, immunocytochemistry. In kind it is cell-based. Conditions: pretreated with 1 μM for 24 hours, then 50 μM prostaglandin 1 hour, FIG. 3C.
Another assay has as its target T2, eIF4A (Homo sapiens, UniProt P60842).
T2 construct: His; gift of Dr. Nadejda Korneeva, Louisiana State University
Conditions: cited from earlier work.

Assay [1] relates to RAW264.7 macrophage cells. Description: Cap-dependent vs CrPV IRES luciferase mRNA translation in LPS-treated RAW264.7 cells. Format: cell-based. Conditions: RAW264.7, 24 hours at indicated concentrations or 10 μg/ml for indicated times, FIG. 4D, 4E. The protocol: In order to confirm that the translational inhibition by 15d-PGJ2 occurs at physiological conditions, we tested the effect of prolonged treatment of lipopolysaccharide (LPS) on RAW264.7 that produces PGD2 and 15d-PGJ2 upon treatment of LPS through a COX-2-dependent pathway (Shibata et al., 2002). In FIGS. 4D-4F, the effects of LPS on translation in RAW264.7 macrophage cells are shown. RAW264.7 cells were incubated with LPS for 24 hours at the indicated concentrations. After the LPS treatment, mRNAs (1 μg) containing Renilla luciferase translated in a cap-dependent manner and mRNAs (1 μg) containing firefly luciferase under the control of cricket paralysis virus (CrPV) IRES were co-transfected into the cells. Luciferase activities were measured 3 hours post-transfection, and the obtained results are shown in FIG. 4D, wherein columns indicate ratios of relative luciferase activities (Renilla luciferase/Firefly luciferase) in the cell extracts normalized to that in a mock-treated control extract.
Further, RAW264.7 cells were incubated with LPS (10 μg/ml) for the times indicated. Transfection of mRNAs and analyses of luciferase activities were performed as described in FIG. 4D, and the obtained results are shown in FIG. 4E. […]

T2 sequence (P60842 whole entry): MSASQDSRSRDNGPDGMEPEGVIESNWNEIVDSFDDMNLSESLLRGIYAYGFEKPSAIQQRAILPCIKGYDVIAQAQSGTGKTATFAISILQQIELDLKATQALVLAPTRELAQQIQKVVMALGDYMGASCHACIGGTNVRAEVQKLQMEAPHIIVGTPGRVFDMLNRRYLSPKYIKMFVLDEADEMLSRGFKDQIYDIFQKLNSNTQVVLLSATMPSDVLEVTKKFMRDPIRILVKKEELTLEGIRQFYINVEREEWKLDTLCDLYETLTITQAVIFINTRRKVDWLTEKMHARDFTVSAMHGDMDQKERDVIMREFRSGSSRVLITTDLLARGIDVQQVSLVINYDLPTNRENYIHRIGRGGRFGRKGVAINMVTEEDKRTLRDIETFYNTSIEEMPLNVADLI

In the case of `O=C(Nc1ccccc1)c1cc([N+](=O)[O-])ccc1Cl` [GW9662], the “PPARγ-mediated PPRE activation” value at PPARγ was “completely blocked”. The “Effect of pretreatment on SG formation induced by 15d-PGJ2 and PGA1” value in the assay on HeLa cells is “had no effect on SG formation induced by 15d-PGJ2 and PGA1”.
Consider `CC(/C=C/C(C)=C/[C@@H]1Cc2nc(cs2)[C@@H](C)C[C@@H](N)CC(=O)O[C@@H](C)C/C(C)=C/C=C\C(=O)O1)=C\CN(C)C` [PatA, pateamine A], for which, on eIF4A (Dang et al., 2006), the SG formation entry was “induces formation of SGs independently of eIF2F phosphorylation”. The Translation entry on eIF4A (Low et al., 2005) is given as “could block translation by inactivating eIF4A”.
Consider lipopolysaccharide [LPS], for which the “Cap-dependent translation (Renilla/firefly luciferase ratio)” value in assay [1] was “inhibited”.

Values taken from patent publication US20090023810A1, “METHODS OF TRANSLATION AND/OR INFLAMMATION BLOCKADE” (priority 2007, published 2009).
